Reference: PubChem BioAssay (NCI)
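Interpolation was linear, between the two tested concentrations surrounding the appropriate level; five concentrations were tested over 48 hours in 96-well plates. GI50 = concentration required for 50% inhibition of growth. Definition used: TGI = concentration required for complete inhibition of growth.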

Assays:
Test in all cases: NCI-60 cell line screen, 48 h
RXF 393 renal = tested on: RXF 393 renal
HOP-92 NSCLC = tested on: HOP-92 NSCLC
CCRF-CEM leukemia = tested on: CCRF-CEM leukemia
SK-MEL-2 melanoma = tested on: SK-MEL-2 melanoma
OVCAR-4 ovarian = tested on: OVCAR-4 ovarian
NCI/ADR-RES ovarian = tested on: NCI/ADR-RES ovarian
MALME-3M melanoma = tested on: MALME-3M melanoma
SNB-19 CNS = tested on: SNB-19 CNS
IGROV1 ovarian = tested on: IGROV1 ovarian
BT-549 breast = tested on: BT-549 breast
CAKI-1 renal = tested on: CAKI-1 renal
SW-620 colon = tested on: SW-620 colon
OVCAR-3 ovarian = tested on: OVCAR-3 ovarian
A549 NSCLC = tested on: A549 NSCLC
HCT-116 colon = tested on: HCT-116 colon
DU-145 prostate = tested on: DU-145 prostate
NCI-H23 lung = tested on: NCI-H23 lung
HS 578T breast = tested on: HS 578T breast
NCI-H460 lung = tested on: NCI-H460 lung
MDA-MB-435 = tested on: MDA-MB-435
U251 CNS = tested on: U251 CNS
UO-31 renal = tested on: UO-31 renal
SR leukemia = tested on: SR leukemia
HT29 colon = tested on: HT29 colon
M14 melanoma = tested on: M14 melanoma
HL-60(TB) leukemia = tested on: HL-60(TB) leukemia
NCI-H522 lung = tested on: NCI-H522 lung
T-47D breast = tested on: T-47D breast
786-0 renal = tested on: 786-0 renal
SF-268 CNS = tested on: SF-268 CNS
UACC-62 melanoma = tested on: UACC-62 melanoma
SF-539 CNS = tested on: SF-539 CNS
SF-295 CNS = tested on: SF-295 CNS
SK-OV-3 ovarian = tested on: SK-OV-3 ovarian
OVCAR-8 ovarian = tested on: OVCAR-8 ovarian
RPMI-8226 leukemia = tested on: RPMI-8226 leukemia
SNB-75 CNS = tested on: SNB-75 CNS
LOX IMVI melanoma = tested on: LOX IMVI melanoma
MOLT-4 leukemia = tested on: MOLT-4 leukemia
MCF7 breast = tested on: MCF7 breast
HCC-2998 colon = tested on: HCC-2998 colon
COLO 205 colon = tested on: COLO 205 colon
PC-3 prostate = tested on: PC-3 prostate
SK-MEL-28 melanoma = tested on: SK-MEL-28 melanoma
KM12 colon = tested on: KM12 colon
UACC-257 melanoma = tested on: UACC-257 melanoma
NCI-H226 lung = tested on: NCI-H226 lung
MDA-MB-231 breast = tested on: MDA-MB-231 breast
HOP-62 NSCLC = tested on: HOP-62 NSCLC
EKVX NSCLC = tested on: EKVX NSCLC
HCT-15 colon = tested on: HCT-15 colon
K-562 leukemia = tested on: K-562 leukemia
ACHN renal = tested on: ACHN renal
SN12C renal = tested on: SN12C renal
SK-MEL-5 melanoma = tested on: SK-MEL-5 melanoma
OVCAR-5 ovarian = tested on: OVCAR-5 ovarian
TK-10 renal = tested on: TK-10 renal

## CCCCCCNC(=O)Oc1ccc(/C(=C(\C)c2ccc(Cl)cc2)c2ccc(OCCN3CCCCC3)cc2)cc1
RXF 393 renal
  GI50: 3.3 µM
  TGI: 7.55 µM
HOP-92 NSCLC
  GI50: 3.55 µM
  TGI: 7.88 µM
CCRF-CEM leukemia
  GI50: 3.2 µM
  TGI: 33.3 µM
SK-MEL-2 melanoma
  GI50: 6.22 µM
  TGI: 12.8 µM
OVCAR-4 ovarian
  GI50: 2.35 µM
  TGI: 7.73 µM
NCI/ADR-RES ovarian
  GI50: 4.15 µM
  TGI: 8.77 µM
MALME-3M melanoma
  GI50: 3.36 µM
  TGI: 7.7 µM
SNB-19 CNS
  GI50: 6.37 µM
  TGI: 28.9 µM
IGROV1 ovarian
  GI50: 4.38 µM
  TGI: 10.5 µM
BT-549 breast
  GI50: 3.61 µM
  TGI: 8.12 µM
CAKI-1 renal
  GI50: 4.03 µM
  TGI: 8.25 µM
SW-620 colon
  GI50: 1.54 µM
  TGI: 5.59 µM
OVCAR-3 ovarian
  GI50: 4.39 µM
  TGI: 9.42 µM
A549 NSCLC
  GI50: 4.73 µM
  TGI: 10.5 µM
HCT-116 colon
  GI50: 0.962 µM
  TGI: 4.78 µM
DU-145 prostate
  GI50: 6.26 µM
  TGI: 16.4 µM
NCI-H23 lung
  GI50: 3.89 µM
  TGI: 9.61 µM
HS 578T breast
  GI50: 4.22 µM
  TGI: 11.6 µM
NCI-H460 lung
  GI50: 1.57 µM
  TGI: 5.46 µM
MDA-MB-435
  GI50: 3.73 µM
  TGI: 7.98 µM
U251 CNS
  GI50: 3.52 µM
  TGI: 7.92 µM
UO-31 renal
  GI50: 2.14 µM
  TGI: 6.57 µM
SR leukemia
  GI50: 0.727 µM
  TGI: 2.14 µM
HT29 colon
  GI50: 1.11 µM
  TGI: 4.02 µM
M14 melanoma
  GI50: 0.785 µM
  TGI: 3.65 µM
HL-60(TB) leukemia
  GI50: 1.17 µM
  TGI: 4.88 µM
NCI-H522 lung
  GI50: 6.14 µM
  TGI: 13 µM
T-47D breast
  GI50: 0.722 µM
  TGI: 7.11 µM
786-0 renal
  GI50: 1.93 µM
  TGI: 6.41 µM
SF-268 CNS
  GI50: 4.9 µM
  TGI: 14 µM
UACC-62 melanoma
  GI50: 4.03 µM
  TGI: 8.59 µM
SF-539 CNS
  GI50: 3.99 µM
  TGI: 8.55 µM
SF-295 CNS
  GI50: 4.79 µM
  TGI: 9.62 µM
SK-OV-3 ovarian
  GI50: 5.42 µM
  TGI: 13.6 µM
OVCAR-8 ovarian
  GI50: 5.53 µM
  TGI: 11.7 µM
RPMI-8226 leukemia
  GI50: 1.84 µM
  TGI: 9.68 µM
SNB-75 CNS
  GI50: 5.59 µM
  TGI: 14.3 µM
LOX IMVI melanoma
  GI50: 4.83 µM
  TGI: 9.41 µM
MOLT-4 leukemia
  GI50: 1.47 µM
  TGI: 23.3 µM
MCF7 breast
  GI50: 0.104 µM
  TGI: 5.38 µM
HCC-2998 colon
  GI50: 4.39 µM
  TGI: 9.17 µM
COLO 205 colon
  GI50: 1.44 µM
  TGI: 6.44 µM
PC-3 prostate
  GI50: 2.23 µM
  TGI: 14.1 µM
SK-MEL-28 melanoma
  GI50: 4.34 µM
  TGI: 9.34 µM
KM12 colon
  GI50: 3.53 µM
  TGI: 10.4 µM
UACC-257 melanoma
  GI50: 4.13 µM
  TGI: 9.98 µM
NCI-H226 lung
  GI50: 5.31 µM
  TGI: 11.8 µM
MDA-MB-231 breast
  GI50: 5.35 µM
  TGI: 10.2 µM
HOP-62 NSCLC
  GI50: 5.28 µM
  TGI: 11.9 µM
EKVX NSCLC
  GI50: 5.04 µM
  TGI: 14.4 µM
HCT-15 colon
  GI50: 1.07 µM
  TGI: 4.71 µM
K-562 leukemia
  GI50: 0.923 µM
  TGI: 3.51 µM
ACHN renal
  GI50: 4.87 µM
  TGI: 9.55 µM
SN12C renal
  GI50: 4.22 µM
  TGI: 8.68 µM
SK-MEL-5 melanoma
  GI50: 2.46 µM
  TGI: 6.71 µM
OVCAR-5 ovarian
  GI50: 5.03 µM
  TGI: 16 µM
TK-10 renal
  GI50: 5.79 µM
  TGI: 12.2 µM
